Measured values taken from ChEMBL document CHEMBL1154313, “Synthesis, antiproliferative, and pharmacokinetic properties of 3- and 17-double-modified analogs of 2-methoxyestradiol” (Bioorg Med Chem Lett, 2009).
Each block holds one compound with its values, some of them ahead of it. Active and inactive are the calls of the source. No cut-off for these calls is given here.

Columns and labels:
MDA-MB-231 [1] = assay: Antiproliferative activity against human MDA-MB-231 cells after 48 hrs by WST1 assay; assay type: functional, cell-based; details: MDA-MB-231, 48 h
HUVEC [2] = assay: Antiangiogenic activity against HUVEC assessed as growth inhibition after 48 hrs by WST1 assay; assay type: functional, cell-based; details: Homo sapiens
MCF7 = assay: Antiproliferative activity against human MCF7 cells after 48 hrs by WST1 assay; assay type: functional, cell-based
[3] = Cmax in CD1 mouse at 45 mg/m'2 of body surface, po administered as single dose; assay type: ADME, organism-based; set-up: route oral; details: in vivo
[4] = Half life in CD1 mouse at 45 mg/m'2 of body surface, po administered as single dose; assay type: ADME, organism-based; details: in vivo
[5] = AUC (0 to infinity) in CD1 mouse at 45 mg/m'2 of body surface, po administered as single dose; assay type: ADME, organism-based; set-up: time infinity, route oral; details: plasma
MDA-MB-231 [6] = assay: Ratio of compound IC50 to 2ME2 IC50 for human MDA-MB-231 cells; assay type: functional
HUVEC [7] = assay: Ratio of compound IC50 to 2ME2 IC50 for antiangiogenic activity against HUVEC; assay type: functional, Homo sapiens
MDA-MB-231 [8] = assay: Ratio of 2ME2 IC50 to compound IC50 for human MDA-MB-231 cells; assay type: functional
HUVEC [9] = assay: Ratio of 2ME2 IC50 to compound IC50 for antiangiogenic activity against HUVEC; assay type: functional, Homo sapiens
Mus musculus [10] = assay: Ratio of compound Cmax to 2ME2 Cmax in CD1 mouse at 45 mg/m'2 of body surface, po administered as single dose; assay type: ADME, organism-based; details: in vivo
Mus musculus [11] = assay: Ratio of compound AUC (0 to infinity) to 2ME2 AUC (0 to infinity) in CD1 mouse at 45 mg/m'2 of body surface, po administered as single dose; assay type: ADME, organism-based; details: in vivo

SMILES: COC(=O)Oc1cc2c(cc1OC)[C@H]1CC[C@]3(C)C(=O)CC[C@H]3[C@@H]1CC2
- IC50 (MDA-MB-231 [1]): 25000 nM
- IC50 (HUVEC [2]): 32900 nM
- Activity (MCF7): Active

SMILES: COc1cc2c(cc1N)CC[C@@H]1[C@@H]2CC[C@]2(C)C(=O)CC[C@@H]12
- IC50 (MDA-MB-231 [1]): 46900 nM
- IC50 (HUVEC [2]): 23400 nM
- Activity (MCF7): Active

SMILES: COc1cc2c(cc1C(N)=O)CC[C@@H]1[C@@H]2CC[C@]2(C)C(=O)CC[C@@H]12
- IC50 (MDA-MB-231 [1]): 2200 nM
- IC50 (HUVEC [2]): 5460 nM
- Ratio IC50 (HUVEC [7]): 8
- Activity (MCF7): Active

SMILES: C/C=C1\CC[C@H]2[C@@H]3CCc4cc(NC=O)c(OC)cc4[C@H]3CC[C@]12C
- IC50 (MDA-MB-231 [1]): 560 nM
- IC50 (HUVEC [2]): 580 nM
- Ratio IC50 (MDA-MB-231 [8]): 2
- Ratio IC50 (HUVEC [9]): 3
- Activity (MCF7): Active

SMILES: COc1cc2c(cc1N)CC[C@@H]1[C@@H]2CC[C@]2(C)CCC[C@@H]12
- IC50 (MDA-MB-231 [1]): 7380 nM
- IC50 (HUVEC [2]): 4720 nM
- Activity (MCF7): Active

SMILES: COc1cc2c(cc1NC=O)CC[C@@H]1[C@@H]2CC[C@]2(C)C(=O)CC[C@@H]12
- IC50 (MDA-MB-231 [1]): 1220 nM
- IC50 (HUVEC [2]): 530 nM
- Ratio IC50 (MDA-MB-231 [6]): 10
- Ratio IC50 (HUVEC [9]): 3
- Activity (MCF7): Active

SMILES: C/C=C1\CC[C@H]2[C@@H]3CCc4cc(N)c(OC)cc4[C@H]3CC[C@]12C
- IC50 (MDA-MB-231 [1]): 1940 nM
- IC50 (HUVEC [2]): 720 nM
- Activity (MCF7): Active

SMILES: COc1cc2c(cc1C(N)=O)CC[C@@H]1[C@@H]2CC[C@]2(C)C=CC[C@@H]12
- Cmax [3]: 1430 nM
- Ratio (Mus musculus [10]): 5
- half-life [4]: 2.1 h
- AUC(0-inf) [5]: 3.36 µM·h
- IC50 (MDA-MB-231 [1]): 200 nM
- IC50 (HUVEC [2]): 130 nM
- Ratio IC50 (MDA-MB-231 [8]): 6
- Ratio IC50 (HUVEC [9]): 5
- Ratio (Mus musculus [11]): 23
- Activity (MCF7): Active

SMILES: COc1cc2c(cc1O)CC[C@@H]1[C@@H]2CC[C@]2(C)[C@@H](O)CC[C@@H]12 [2-METHOXYESTRADIOL]
- Cmax [3]: 294 nM
- half-life [4]: 0.3 h
- AUC(0-inf) [5]: 0.142 µM·h
- IC50 (MDA-MB-231 [1]): 790 nM
- IC50 (HUVEC [2]): 680 nM
- Activity (MCF7): Active

SMILES: C=C1CC[C@H]2[C@@H]3CCc4cc(N)c(OC)cc4[C@H]3CC[C@]12C
- IC50 (MDA-MB-231 [1]): 2110 nM
- IC50 (HUVEC [2]): 1000 nM
- Activity (MCF7): Active

SMILES: C=Cc1cc2c(cc1OC)[C@H]1CC[C@]3(C)CCC[C@H]3[C@@H]1CC2
- IC50 (MDA-MB-231 [1]): 1860 nM
- IC50 (HUVEC [2]): 580 nM
- Activity (MCF7): Active

SMILES: C=C1CC[C@H]2[C@@H]3CCc4cc(C(N)=O)c(OC)cc4[C@H]3CC[C@]12C
- Cmax [3]: 334 nM
- half-life [4]: 4.8 h
- AUC(0-inf) [5]: 3.2 µM·h
- IC50 (MDA-MB-231 [1]): 120 nM
- IC50 (HUVEC [2]): 250 nM
- Ratio IC50 (MDA-MB-231 [8]): 6
- Ratio IC50 (HUVEC [9]): 5
- Activity (MCF7): Active

SMILES: COc1cc2c(cc1NC#N)CC[C@@H]1[C@@H]2CC[C@]2(C)C(=O)CC[C@@H]12
- IC50 (MDA-MB-231 [1]): 200 nM
- IC50 (HUVEC [2]): 250 nM
- Activity (MCF7): Active

SMILES: C=C1CC[C@H]2[C@@H]3CCc4cc(NC=O)c(OC)cc4[C@H]3CC[C@]12C
- IC50 (MDA-MB-231 [1]): 300 nM
- IC50 (HUVEC [2]): 220 nM
- Ratio IC50 (MDA-MB-231 [8]): 2
- Ratio IC50 (HUVEC [9]): 3
- Activity (MCF7): Active

SMILES: COc1cc2c(cc1N)CC[C@@H]1[C@@H]2CC[C@]2(C)[C@@H](C)CC[C@@H]12
- IC50 (MDA-MB-231 [1]): 7310 nM
- IC50 (HUVEC [2]): 2650 nM
- Activity (MCF7): Active

Second part, led by results:

- IC50 (MDA-MB-231 [1]): 5600 nM
SMILES: COC(=O)Nc1cc2c(cc1OC)[C@H]1CC[C@]3(C)C(=O)CC[C@H]3[C@@H]1CC2
- IC50 (HUVEC [2]): 8220 nM
- Activity (MCF7): Active

- Cmax [3]: 504 nM
- half-life [4]: 1.1 h
- AUC(0-inf) [5]: 2.53 µM·h
- IC50 (MDA-MB-231 [1]): 1860 nM
SMILES: COc1cc2c(cc1C(N)=O)CC[C@@H]1[C@@H]2CC[C@]2(C)CCC[C@@H]12
- IC50 (HUVEC [2]): 1190 nM
- Ratio IC50 (MDA-MB-231 [6]): 3
- Ratio IC50 (HUVEC [7]): 8
- Activity (MCF7): Active

- IC50 (MDA-MB-231 [1]): 610 nM
SMILES: COc1cc2c(cc1NC=O)CC[C@@H]1[C@@H]2CC[C@]2(C)[C@@H](C)CC[C@@H]12
- IC50 (HUVEC [2]): 590 nM
- Ratio IC50 (MDA-MB-231 [8]): 2
- Ratio IC50 (HUVEC [9]): 3
- Activity (MCF7): Active

- IC50 (MDA-MB-231 [1]): 9250 nM
SMILES: COc1cc2c(cc1NC(C)=O)CC[C@@H]1[C@@H]2CC[C@]2(C)CCC[C@@H]12
- IC50 (HUVEC [2]): 1680 nM
- Activity (MCF7): Active

- IC50 (MDA-MB-231 [1]): 53000 nM
SMILES: CCNC(=O)c1cc2c(cc1OC)[C@H]1CC[C@]3(C)CCC[C@H]3[C@@H]1CC2
- IC50 (HUVEC [2]): 38000 nM
- Activity (MCF7): Active

- IC50 (MDA-MB-231 [1]): 710 nM
SMILES: COc1cc2c(cc1NC(N)=O)CC[C@@H]1[C@@H]2CC[C@]2(C)C(=O)CC[C@@H]12
- IC50 (HUVEC [2]): 610 nM
- Activity (MCF7): Active

- IC50 (MDA-MB-231 [1]): 8290 nM
SMILES: COc1cc2c(cc1NC=O)CC[C@@H]1[C@@H]2CC[C@]2(C)CCC[C@@H]12
- IC50 (HUVEC [2]): 5800 nM
- Ratio IC50 (MDA-MB-231 [6]): 10
- Ratio IC50 (HUVEC [7]): 8
- Activity (MCF7): Active
